Experimental data from ChEMBL document CHEMBL4823287, “Design and synthesis of novel 5-alkynyl pyrimidine nucleosides derivatives: Influence of C-6-substituent on antituberculosis activity” (2021).
≈ marks a conversion by molar mass, not a printed value.

Key:
[1] = test system: Mycobacterium tuberculosis; assay: Antimycobacterial activity against Mycobacterium bovis BCG assessed as inhibition of bacterial growth at 1 ug/ml measured by microplate alamar blue assay; assay type: functional; settings: variant bovis BCG
[2] = test system: Mycobacterium tuberculosis; assay: Antimycobacterial activity against Mycobacterium bovis BCG assessed as inhibition of bacterial growth at measured by microplate alamar blue assay; assay type: functional; settings: variant bovis BCG
[3] = test system: Mycobacterium tuberculosis; assay: Antimycobacterial activity against Mycobacterium bovis BCG assessed as inhibition of bacterial growth at 50 ug/ml measured by microplate alamar blue assay; assay type: functional; settings: variant bovis BCG
[4] = test system: Mycobacterium tuberculosis; assay: Antimycobacterial activity against Mycobacterium bovis BCG assessed as inhibition of bacterial growth at 1 to 5 ug/ml measured by microplate alamar blue assay; assay type: functional, variant bovis BCG; settings: dose 1-5 µg/ml; at 1 to 5 µg/mL
[5] = test system: Mycobacterium tuberculosis; assay: Antimycobacterial activity against Mycobacterium bovis BCG assessed as inhibition of bacterial growth at 25 ug/ml measured by microplate alamar blue assay; assay type: functional; settings: variant bovis BCG
[6] = test system: Mycobacterium tuberculosis; assay: Antimycobacterial activity against Mycobacterium bovis BCG assessed as inhibition of bacterial growth at 10 ug/ml measured by microplate alamar blue assay; assay type: functional; settings: variant bovis BCG
[7] = test system: Mycobacterium tuberculosis; assay: Antimycobacterial activity against Mycobacterium bovis BCG assessed as inhibition of bacterial growth at 5 ug/ml measured by microplate alamar blue assay; assay type: functional; settings: variant bovis BCG
[8] = test system: Mycobacterium tuberculosis; assay: Antimycobacterial activity against Mycobacterium bovis BCG assessed as inhibition of bacterial growth at 100 ug/ml measured by microplate alamar blue assay; assay type: functional; settings: variant bovis BCG

Row | SMILES | inhibition at 1 µg/mL [1] | MIC50 [2] | inhibition at 50 µg/mL [3] | inhibition (INH) [4] | inhibition at 25 µg/mL [5] | inhibition at 10 µg/mL [6] | inhibition at 5 µg/mL [7] | inhibition at 100 µg/mL [8]
1 | Cc1c(C#CC(O)c2ccccc2)c(=O)[nH]c(=O)n1[C@@H]1O[C@H](CO)[C@@H](O)[C@H]1O (stereo partly specified) | 100% | 0.7 µg/mL (≈ 1.8 µM) | – | – | – | – | – | –
2 | Cc1c(C#CC2CCCCC2)c(=O)[nH]c(=O)n1[C@@H]1O[C@H](CO)[C@@H](O)[C@H]1O | – | 14.7 µg/mL (≈ 40.3 µM) | 100% | 10% | 70% | – | – | –
3 | N[C@@H]1CONC1=O [CYCLOSERINE] | – | 5.1 µg/mL (≈ 50 µM) | – | – | – | 71% | 50% | –
4 | CCC#Cc1c(C)n([C@@H]2O[C@H](CO)[C@@H](O)[C@H]2O)c(=O)[nH]c1=O | – | 50 µg/mL (≈ 161 µM) | 50% | – | – | 0% | – | 90%
5 | CCCCCCC#Cc1c(C)n([C@@H]2O[C@H](CO)[C@@H](O)[C@H]2O)c(=O)[nH]c1=O | – | < 50 µg/mL | 60% | – | – | – | – | 90%
6 | Cc1c(C#Cc2ccccc2)c(=O)[nH]c(=O)n1[C@@H]1O[C@H](CO)[C@@H](O)[C@H]1O | – | 2.2 µg/mL (≈ 6.14 µM) | 75% | 50% | – | 75% | – | 90%
7 | CC#Cc1c(C)n([C@@H]2O[C@H](CO)[C@@H](O)[C@H]2O)c(=O)[nH]c1=O | – | 50 µg/mL (≈ 169 µM) | 50% | – | – | 0% | – | 90%
8 | Cc1c(C#CCC(C)C)c(=O)[nH]c(=O)n1[C@@H]1O[C@H](CO)[C@@H](O)[C@H]1O | – | 18.9 µg/mL (≈ 55.9 µM) | 100% | 10% | 60% | – | – | –
9 | CCCCC#Cc1c(C)n([C@@H]2O[C@H](CO)[C@@H](O)[C@H]2O)c(=O)[nH]c1=O | – | 18.6 µg/mL (≈ 55 µM) | 100% | 10% | 60% | – | – | –
10 | Cc1c(C#CC2CC2)c(=O)[nH]c(=O)n1[C@@H]1O[C@H](CO)[C@@H](O)[C@H]1O | – | 2.1 µg/mL (≈ 6.52 µM) | – | 50% | – | 80% | – | 90%
11 | CCCC#Cc1c(C)n([C@@H]2O[C@H](CO)[C@@H](O)[C@H]2O)c(=O)[nH]c1=O | – | < 50 µg/mL | 60% | – | – | 0% | – | 90%
12 | Cc1c(C#C[Si](C)(C)C)c(=O)[nH]c(=O)n1[C@@H]1O[C@H](CO)[C@@H](O)[C@H]1O | – | – | – | – | – | – | – | 0%
13 | CO[C@H]1/C=C/O[C@@]2(C)Oc3c(C)c(O)c4c(O)c(c(/C=N/N5CCN(C)CC5)c(O)c4c3C2=O)NC(=O)/C(C)=C\C=C\[C@H](C)[C@H](O)[C@@H](C)[C@@H](O)[C@@H](C)[C@H](OC(C)=O)[C@@H]1C [RIFAMPIN] | 100% | 0.8 µg/mL (≈ 0.972 µM) | – | – | – | – | – | –
14 | NNC(=O)c1ccncc1 [ISONIAZID] | 100% | 0.9 µg/mL (≈ 6.56 µM) | – | – | – | – | – | –
